According to patent US8476197B2, “Aminopropenoates as fungicides” (priority 2009, dated 2013):
Like-named read-outs stand apart in the source and are kept apart here. Marks after values point to notes of the source that are not given here.

| SMILES | Log P (pH 2.7) | further results |
| --- | --- | --- |
| CCOC(=O)C(C#N)=C(NC(C)C1CC1)c1cn(C)nc1C(F)(F)F (racemic) [Compound 894] | 3.29^[a] |  |
| CCOC(=O)C(C#N)=C(NC(C)C1CC1)c1cn(C)nc1C(C)F (racemic) [Compound 895] | 2.84^[a] |  |
| CCOC(=O)C(C#N)=C(NC(C)C1CC1)c1cc(Cl)ncc1Cl (racemic) [Compound 896] | 3.69^[a] |  |
| CCOC(=O)C(C#N)=C(NC(C)C1CC1)c1cnccc1C(F)(F)F (racemic) [Compound 897] | 3.2^[a] |  |
| CCOC(=O)C(C#N)=C(NC(C)C1CC1)c1ccncc1Cl (racemic) [Compound 898] | 3.03^[a] |  |
| CCOC(=O)C(C#N)=C(NC(C)C1CC1)c1cccnc1C(F)F (racemic) [Compound 899] | 2.9^[a] |  |
| CCOC(=O)C(C#N)=C(NC(C)C1CC1)c1cc(Cl)cc(Cl)n1 (racemic) [Compound 900] | 3.92^[a] |  |
| CCOC(=O)C(C#N)=C(NC(C)C1CC1)c1cn(C)cc1C(F)(F)F (racemic) [Compound 901] | 3.56^[a] |  |
| CCOC(=O)C(C#N)=C(NC(C)C1CC1)c1ccnc(Cl)c1Cl (racemic) [Compound 902] | 3.61^[a] |  |
| CCOC(=O)C(C#N)=C(NC(C)C1CC1)c1ccncc1Br (racemic) [Compound 903] | 3^[a] |  |
| CCOC(=O)C(C#N)=C(NC(C)C1CC1)c1ccncc1F (racemic) [Compound 904] | 2.8^[a] |  |
| CCOC(=O)C(C#N)=C(NC(C)C1CC1)c1ccncc1C(F)(F)F (racemic) [Compound 905] | 3.2^[a] |  |
| CNC(=O)C(C#N)=C(NC(C)C1CC1)c1cccnc1Cl (racemic) [Compound 908] |  | Log P (pH 2.3): 2.2^[c]; 2.2^[b]; Log P (pH 7.5): 2.2^[c]; 2.2^[b] |
| CCOC(=O)C(C#N)=C(NC(C)C(C)(C)C)c1cn(C)nc1C(F)F (racemic) [Compound 918] | 3.37^[a] |  |
| CCOC(=O)C(C#N)=C(NC(C)C(C)(C)C)c1sccc1C(F)(F)F (racemic) [Compound 919] | 4.46^[a] |  |
| COC(=O)C(C#N)=C(NC(C)C(C)(C)C)c1sc(C)nc1C(F)(F)F (racemic) [Compound 920] | 3.83^[a] |  |
| CCOC(=O)C(C#N)=C(NC(C)C(C)(C)C)c1sccc1Br (racemic) [Compound 921] | 4.41^[a] |  |
| CCOC(=O)C(C#N)=C(NC(C)C(C)(C)C)c1sc(C)nc1C(F)(F)F (racemic) [Compound 922] | 4.21^[a] |  |
| CCOC(=O)C(C#N)=C(NC(C)C(C)(C)C)c1ccsc1Br (racemic) [Compound 923] | 4.36^[a] |  |
| CCOC(=O)C(C#N)=C(NC(C)C(C)C)c1cn(C)cc1C(F)(F)F (racemic) [Compound 987] | 3.84^[a] |  |
| CCOC(=O)C(C#N)=C(NC(C)C(C)C)c1c(C(F)F)nn(C)c1F (racemic) [Compound 1000] | 3.53^[a] |  |
| CCOC(=O)C(C#N)=C(NC(C)C(C)C)c1c(C(F)(F)F)nn(C)c1Cl (racemic) [Compound 1001] | 4.06^[a] |  |
| CCOC(=O)C(C#N)=C(NC(C)C(C)C)c1cn(C)nc1C(C)(F)F (racemic) [Compound 1002] | 3.39^[a] |  |
| C=CCCCC(C=C)NC(=C(C#N)C(=O)OCC)c1c(C)nn(C)c1Cl (racemic) [Compound 1013] | 4.04^[a] |  |
| C=CCCCC(C=C)NC(=C(C#N)C(=O)OCC)c1sccc1C(F)(F)F (racemic) [Compound 1014] | 4.7^[a] |  |

| SMILES | Log P (pH 2.7) | further results |
| --- | --- | --- |
| C=CCCCC(C=C)NC(=C(C#N)C(=O)OCC)c1ncc(C(F)(F)F)cc1Cl (racemic) [Compound 1015] | 4.82^[a] |  |
| C=CCCCC(C=C)NC(=C(C#N)C(=O)OCC)c1cn(C)nc1C(F)F (racemic) [Compound 1016] | 3.73^[a] |  |
| C=CCCCC(C=C)NC(=C(C#N)C(=O)OCC)c1sccc1Br (racemic) [Compound 1017] | 4.67^[a] |  |
| C=CCCCC(C=C)NC(=C(C#N)C(=O)OCC)c1ccsc1Br (racemic) [Compound 1018] | 4.67^[a] |  |
| CCOC(=O)C(C#N)=C(NC(C)CSc1cc(Cl)ccc1Cl)c1cn(C)nc1C(F)F (racemic) [Compound 1235] | 4.08^[a] |  |
| CCOC(=O)C(C#N)=C(NC(C)CSc1ccc(Cl)c(Cl)c1)c1cn(C)nc1C(F)F (racemic) [Compound 1236] | 4.2^[a] |  |
| CCOC(=O)C(C#N)=C(NC(C)COc1cccc(C(F)(F)F)c1)c1cn(C)nc1C(F)F (racemic) [Compound 1237] | 3.92^[a] |  |
| CCOC(=O)C(C#N)=C(NCC(c1ccccc1)C(C)C)c1cn(C)nc1C(F)F (racemic) [Compound 1239] | 3.94^[a] |  |
| CCOC(=O)C(C#N)=C(NC(C)C(=O)CC)c1cn(C)nc1C(F)F (racemic) [Compound 1240] | 2.47^[a] |  |
| CCOC(=O)C(C#N)=C(NC(C)COCc1ccccc1Cl)c1cn(C)nc1C(F)F (racemic) [Compound 1241] | 3.83^[a] |  |
| CCOC(=O)C(C#N)=C(NC(C)COc1ccccc1C)c1cn(C)nc1C(F)F (racemic) [Compound 1242] | 3.78^[a] |  |
| CCOC(=O)C(C#N)=C(NC(C)c1ccccn1)c1ccnc(C)c1Cl (racemic) [Compound 1243] | 2.6^[a] |  |
| CCOC(=O)C(C#N)=C(NC(C)c1nccs1)c1cn(C)nc1I (racemic) [Compound 1247] | 3.46^[a] |  |
| CCOC(=O)C(C#N)=C(NC(C)c1ccccn1)c1cn(C)nc1I (racemic) [Compound 1248] | 2.37^[a] |  |
| CCCC(C#N)NC(=C(C#N)C(=O)OCC)c1cn(C)nc1C(F)F (racemic) [Compound 1250] | 2.77^[a] |  |
| CCOC(=O)C(C#N)=C(NC(C#N)CC)c1cn(C)nc1C(F)F (racemic) [Compound 1251] | 2.45^[a] |  |
| CCOC(=O)C(C#N)=C(NC(C#N)CC(C)C)c1cn(C)nc1C(F)F (racemic) [Compound 1252] | 3.04^[a] |  |
| CCOC(=O)C(C#N)=C(NC(C)C(F)(F)F)c1cn(C)nc1C(F)F (racemic) [Compound 1253] | 2.92^[a] |  |
| CCOC(=O)C(C#N)=C(NC(C)C#N)c1cn(C)nc1C(F)F (racemic) [Compound 1254] | 2.15^[a] |  |
| CCNC(=O)C(C)NC(=C(C#N)C(=O)OCC)c1cn(C)nc1C(F)F (racemic) [Compound 1256] | 1.88^[a] |  |
| CCOC(=O)C(C#N)=C(NC(C#N)c1cccc(Cl)c1Cl)c1cccnc1Cl (racemic) [Compound 1257] | 3.69^[a] |  |
| C#CCC(C#N)NC(=C(C#N)C(=O)OCC)c1cccnc1Cl (racemic) [Compound 1258] | 2.37^[a] |  |
| CCOC(=O)C(C#N)=C(NC(C#N)Cc1ccccc1)c1cccnc1Cl (racemic) [Compound 1259] | 3.02^[a] |  |
| CCOC(=O)C(C#N)=C(NC(c1ccc(N(C)C)cc1)C(F)(F)F)c1cccnc1Cl (racemic) [Compound 1260] | 3.99^[a] |  |
| CCOC(=O)C(C#N)=C(NC(c1ccc(Cl)cc1)C(F)(F)F)c1cccnc1Cl (racemic) [Compound 1261] | 4.25^[a] |  |

| SMILES | Log P (pH 2.7) | further results |
| --- | --- | --- |
| CCOC(=O)C(C#N)=C(NC(Cc1ncccc1C)C(F)(F)F)c1cccnc1Cl (racemic) [Compound 1262] | 3.04^[a] |  |
| CCOC(=O)C(C#N)=C(NC(C#N)c1ccc(Cl)cc1Cl)c1cccnc1Cl (racemic) [Compound 1267] | 3.83^[a] |  |
| CCOC(=O)C(C#N)=C(NC(C)C(=O)CC)c1cccnc1Cl (racemic) [Compound 1270] | 2.64^[a] |  |
| CCNC(=O)C(C#N)=C(NC(C)c1ccccn1)c1ccnc(C)c1Cl (racemic) [Compound 1277] | 2.7^[a] |  |
| CC(NC(=C(C#N)C(=O)NC1CC1)c1cn(C)nc1C(F)F)c1nccs1 (racemic) [Compound 1279] | 2.04^[a] |  |
| CC(NC(=C(C#N)C(=O)NC1CC1)c1cn(C)nc1C(F)F)c1ccccn1 (racemic) [Compound 1280] | 1.84^[a] |  |
| COCCNC(=O)C(C#N)=C(NC(C)c1nccs1)c1cn(C)nc1C(F)F (racemic) [Compound 1287] | 1.96^[a] |  |
| COCCNC(=O)C(C#N)=C(NC(C)c1ccccn1)c1cn(C)nc1C(F)F (racemic) [Compound 1288] | 1.75^[a] |  |
| C=CCNC(=O)C(C#N)=C(NC(C)c1ccccn1)c1cn(C)nc1C(F)F (racemic) [Compound 1291] | 2.02^[a] |  |
| C=CCNC(=O)C(C#N)=C(NC(C)c1nccs1)c1cn(C)nc1C(F)F (racemic) [Compound 1292] | 2.2^[a] |  |
| CCNC(=O)C(C#N)=C(NC(C)c1ccccn1)c1cn(C)nc1C(F)F (racemic) [Compound 1293] | 1.86^[a] |  |
| CCNC(=O)C(C#N)=C(NC(C)c1nccs1)c1cn(C)nc1C(F)F (racemic) [Compound 1294] | 2.05^[a] |  |
| CC#CC(C)NC(=C(C#N)C(=O)OCC)c1ccnc(Cl)c1Cl (racemic) [Compound 1386] | 3.44^[a] |  |
| CCOC(=O)C(C#N)=C(NC(C)c1ncc(C)s1)c1ccnc(Cl)c1Cl (racemic) [Compound 1389] | 3.33^[a] |  |
| CCCC(C)NC(=C(C#N)C(=O)OCC)c1ccnc(Cl)c1Cl (racemic) [Compound 1390] | 3.99^[a] |  |
| CCOC(=O)C(C#N)=C(NC(C)c1ccccn1)c1ccnc(Br)c1Cl (racemic) [Compound 1391] | 3.09^[a] |  |
| CCOC(=O)C(C#N)=C(NC(C)c1ccccn1)c1ccnc(SC)c1Cl (racemic) [Compound 1393] | 3.35^[a] |  |
| CCOC(=O)C(C#N)=C(NC(C)c1ccccn1)c1ccncc1C(F)(F)F (racemic) [Compound 1394] | 2.7^[a] |  |
| CCOC(=O)C(C#N)=C(NC(C)c1ccccn1)c1ccnc(Br)c1F (racemic) [Compound 1395] | 3^[a] |  |
| CCOC(=O)C(C#N)=C(NC(C)c1ccccn1)c1ccnc(CC)c1Cl (racemic) [Compound 1396] | 2.96^[a] |  |
| CCCc1nccc(C(NC(C)c2ccccn2)=C(C#N)C(=O)OCC)c1Cl (racemic) [Compound 1397] | 3.29^[a] |  |
| CCOC(=O)C(C#N)=C(NC(C)c1ccccn1)c1ccnc(-c2ccccc2)c1Cl (racemic) [Compound 1398] | 3.33^[a] |  |
| CCOC(=O)C(C#N)=C(NC(C)c1ccccn1)c1ccnc(Cl)c1Br (racemic) [Compound 1404] | 3.06^[a] |  |
| CCOC(=O)C(C#N)=C(NC(C)c1nccs1)c1ccnc(Cl)c1Br (racemic) [Compound 1406] | 2.96^[a] |  |
